This test deals with Male beagle dogs. The test is described as follows: canine telemetry protocol, blood pressure reduction efficacy. It counts as in vivo. The note with it: change from baseline, 3 mg/kg oral gavage; for ΔPP (mm Hg) 1-6 h / ΔPP (mm Hg) 6-12 h / ΔPP (mm Hg) 12-18 h: pulse pressure; for ΔSBP (mm Hg) 1-6 h / ΔSBP (mm Hg) 6-12 h / ΔSBP (mm Hg) 12-18 h: systolic blood pressure. The method, then: Compounds of the invention were evaluated for blood pressure reduction efficacy using the following canine telemetry protocol described below.
Male beagle dogs (approximately 1-3 years old) with a body weight of between 10 and 16 kg were surgically implanted with DSI radiotelemetry devices (model: TL11M2-D70-PCT). Briefly, under an inhalant anesthesia, isoflurane/oxygen mixture (1-3.5%/to effect), the body of the telemetry device was positioned and secured intra-abdominally. Subsequently, the arterial catheter of the telemetry device was passed subcutaneously to the inguinal area and introduced into the femoral artery and advanced to the level of the descending aorta. The catheter was secured with 2-0 silk ligatures. The muscle and underlying fascia was closed over the catheter using absorbable suture and the skin was closed using non-absorbable suture. The animals were allowed a minimum recovery period of 2 weeks between surgery and the evaluation of test compounds.
Compound evaluation consisted of a 3 day paradigm at a 3 mg/kg dose. On the first day, no compounds were administered during a 24 hour period of baseline data collection. Blood pressure and heart rate data were collected continuously for one minute periods at 10 minute intervals. On the days of compound administration half the animals received test article with the other half receiving the vehicle used for compound formulation. All test materials were administered by oral gavage in a volume of 1 mL/kg. Data are expressed either as raw values (mm Hg or beats per minute) or as the change from baseline (average value for about 12 hours in low activity period prior to dosing). Change is SBP (systolic blood pressure) and PP (pulse pressure) over time is shown below: […]

In the case of `CCN(/[N+]([O-])=N/O[C@H]1CC[C@@H](C(=O)O)CC1)C(C)(C)C` [Example 1, Cis-4-({[(1Z)-2-tert-butyl-2-ethyl-1-oxido-1λ^5-diazan-1-ylidene]amino}oxy)-cyclohexanecarboxylic acid], the “ΔPP (mm Hg) 1-6 h” value is on record as −1 mm Hg, the “ΔPP (mm Hg) 6-12 h” value is listed as −6 mm Hg, the “ΔPP (mm Hg) 12-18 h” value is −1 mm Hg and the “ΔSBP (mm Hg) 1-6 h” value is −9 mm Hg. Also, the “ΔSBP (mm Hg) 6-12 h” value is −5 mm Hg and the “ΔSBP (mm Hg) 12-18 h” value is −1 mm Hg.
With `CCN(/[N+]([O-])=N/O[C@H]1CC[C@H](C(=O)O)CC1)C(C)(C)C` [Example 2, Trans-4-({[(1Z)-2-tert-butyl-2-ethyl-1-oxido-1λ^5-diazan-1-ylidene]amino}oxy)-cyclohexanecarboxylic acid], the “ΔPP (mm Hg) 1-6 h” value is −9 mm Hg, the “ΔPP (mm Hg) 6-12 h” value is on record as −9 mm Hg, the “ΔPP (mm Hg) 12-18 h” value is given as −7 mm Hg and the “ΔSBP (mm Hg) 1-6 h” value is given as −14 mm Hg. Further, the “ΔSBP (mm Hg) 6-12 h” value is listed as −10 mm Hg and the “ΔSBP (mm Hg) 12-18 h” value is recorded as −9 mm Hg.
`CN(/[N+]([O-])=N/O[C@H]1CC[C@@H](C(=O)O)CC1)C(C)(C)C` [Example 3, Cis-4-({[(1Z)-2-tert-butyl-2-methyl-1-oxido-1λ^5-diazan-1-ylidene]amino}oxy)-cyclohexanecarboxylic acid]: the “ΔPP (mm Hg) 1-6 h” value is given as −7 mm Hg, the “ΔPP (mm Hg) 6-12 h” value is −8 mm Hg, the “ΔPP (mm Hg) 12-18 h” value is −5 mm Hg and the “ΔSBP (mm Hg) 1-6 h” value is −8 mm Hg. In addition, the “ΔSBP (mm Hg) 6-12 h” value is reported as −10 mm Hg and the “ΔSBP (mm Hg) 12-18 h” value is reported as −5 mm Hg.
Consider `CN(/[N+]([O-])=N/O[C@H]1CC[C@H](C(=O)O)CC1)C(C)(C)C` [Example 6, Trans-4-({[(1Z)-2-tert-butyl-2-methyl-1-oxido-1λ^5-diazan-1-ylidene]amino}oxy)-cyclohexanecarboxylic acid], for which the “ΔPP (mm Hg) 1-6 h” value is reported as −12 mm Hg, the “ΔPP (mm Hg) 6-12 h” value is recorded as −4 mm Hg, the “ΔPP (mm Hg) 12-18 h” value was −2 mm Hg and the “ΔSBP (mm Hg) 1-6 h” value was −18 mm Hg. Moreover, the “ΔSBP (mm Hg) 6-12 h” value is on record as −4 mm Hg and the “ΔSBP (mm Hg) 12-18 h” value is given as −2 mm Hg.
Turning to `CCCCN(/[N+]([O-])=N/O[C@H]1CC[C@H](C(=O)O)CC1)C(C)(C)C` [Example 8, Trans-4-({[(1Z)-2-butyl-2-tert-butyl-1-oxido-1λ^5-diazan-1-ylidene]amino}oxy)-cyclohexanecarboxylic acid], the “ΔPP (mm Hg) 1-6 h” value is reported as −11 mm Hg, the “ΔPP (mm Hg) 6-12 h” value was −15 mm Hg, the “ΔPP (mm Hg) 12-18 h” value is given as −12 mm Hg and the “ΔSBP (mm Hg) 1-6 h” value is recorded as −14 mm Hg. For the same compound, the “ΔSBP (mm Hg) 6-12 h” value is −14 mm Hg and the “ΔSBP (mm Hg) 12-18 h” value is recorded as −8 mm Hg.
